PubChem BioAssay AID2060614 (Molecular Pharmacology Branch, DTP, NCI, 2025)
Where “and” joins values, the source holds several entries; their conditions need not be identical. Equal entries are not always repeated.

Test system: 598228-144-R-J1-PDC complex spheroids, viability
Assay: Anticancer human tumor 598228-144-R-J1-PDC patient-derived serous endometrial adenocarcinoma cell line growth inhibition [CLK]
Settings: for viability, T/C: stronger effect = lower value
How it was run: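 Patient-derived tumor cells grown as complex spheroids with HUVEC endothelial cells and mesenchymal stem cells, treated with drug combinations. Concentrations descend in half-log steps from near clinical Cmax, or from 10 microM if Cmax unknown.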
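Further: spheroids exposed to compounds for seven days before readout.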
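Wherever viability, T/C is given: 100% = DMSO vehicle control wells.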

## Cn1ncnc1[C@H]1c2n[nH]c(=O)c3cc(F)cc(c23)N[C@@H]1c1ccc(F)cc1 + CN1CCN(c2cc(C(=O)Nc3cc4cc(-c5cnn(C)c5)ccc4cn3)ccn2)CC1
Curve of first compound, second compound 0.0316 µM
  IC50: > 100 nM
Curve of first compound, second compound 0.1 µM
  IC50: > 100 nM
Curve of first compound, second compound 0.316 µM
  IC50: < 0.316 nM
Curve of first compound, second compound 1 µM
  IC50: < 0.316 nM
Curve of first compound, second compound 3.16 µM
  IC50: < 0.316 nM
Curve of first compound, second compound 10 µM
  IC50: < 0.316 nM
Second compound 0.0316 µM, first compound 0.000316 µM
  viability, T/C: 126%
Second compound 0.0316 µM, first compound 0.001 µM
  viability, T/C: 119%
Second compound 0.0316 µM, first compound 0.00316 µM
  viability, T/C: 107%
Second compound 0.0316 µM, first compound 0.01 µM
  viability, T/C: 113%
Second compound 0.0316 µM, first compound 0.0316 µM
  viability, T/C: 107%
Second compound 0.0316 µM, first compound 0.1 µM
  viability, T/C: 122%
Second compound 0.1 µM, first compound 0.000316 µM
  viability, T/C: 117%
Second compound 0.1 µM, first compound 0.001 µM
  viability, T/C: 125%
Second compound 0.1 µM, first compound 0.00316 µM
  viability, T/C: 114%
Second compound 0.1 µM, first compound 0.01 µM
  viability, T/C: 116%
Second compound 0.1 µM, first compound 0.0316 µM
  viability, T/C: 133%
Second compound 0.1 µM, first compound 0.1 µM
  viability, T/C: 129%
Second compound 0.316 µM, first compound 0.000316 µM
  viability, T/C: 19.3%
Second compound 0.316 µM, first compound 0.001 µM
  viability, T/C: 19.1%
Second compound 0.316 µM, first compound 0.00316 µM
  viability, T/C: 16.3%
Second compound 0.316 µM, first compound 0.01 µM
  viability, T/C: 19%
Second compound 0.316 µM, first compound 0.0316 µM
  viability, T/C: 18.8%
Second compound 0.316 µM, first compound 0.1 µM
  viability, T/C: 16.7%
Second compound 1 µM, first compound 0.000316 µM
  viability, T/C: 1.63%
Second compound 1 µM, first compound 0.001 µM
  viability, T/C: 1.39%
Second compound 1 µM, first compound 0.00316 µM
  viability, T/C: 1.72%
Second compound 1 µM, first compound 0.01 µM
  viability, T/C: 1.32%
Second compound 1 µM, first compound 0.0316 µM
  viability, T/C: 3.04%
Second compound 1 µM, first compound 0.1 µM
  viability, T/C: 3.99%
Second compound 3.16 µM, first compound 0.000316 µM
  viability, T/C: 1.68%
Second compound 3.16 µM, first compound 0.001 µM
  viability, T/C: 3.14%
Second compound 3.16 µM, first compound 0.00316 µM
  viability, T/C: 1.85%
Second compound 3.16 µM, first compound 0.01 µM
  viability, T/C: 2.2%
Second compound 3.16 µM, first compound 0.0316 µM
  viability, T/C: 1.94%
Second compound 3.16 µM, first compound 0.1 µM
  viability, T/C: 6.61%
Second compound 10 µM, first compound 0.000316 µM
  viability, T/C: 1.05%
Second compound 10 µM, first compound 0.001 µM
  viability, T/C: 2.11%
Second compound 10 µM, first compound 0.00316 µM
  viability, T/C: 1.83%
Second compound 10 µM, first compound 0.01 µM
  viability, T/C: 0.71%
Second compound 10 µM, first compound 0.0316 µM
  viability, T/C: 3.42%
Second compound 10 µM, first compound 0.1 µM
  viability, T/C: 4.51%

## CCCS(=O)(=O)Nc1ccc(F)c(C(=O)c2c[nH]c3ncc(-c4ccc(Cl)cc4)cc23)c1F
Compound 0.0316 µM
  viability, T/C: 95.3% and 98.7%
Compound 0.1 µM
  viability, T/C: 119% and 92.2%
Compound 0.316 µM
  viability, T/C: 92.5% and 90.5%
Compound 1 µM
  viability, T/C: 106% and 90.1%
Compound 3.16 µM
  viability, T/C: 89.6% and 81.8%
Compound 10 µM
  viability, T/C: 55.9% and 44.1%
Curve of compound
  IC50: > 10000 nM and 8390 nM
